Assay results reported in publication PMC12102759 (Protein Science : A Publication of the Protein Society, 2025).
Read-outs that look alike come from different tables or passages of the source.

System: G3BP1 NFT2
Assay type: binding, human
Conditions: library DMS-CoV, bait G3BP1 NFT2, prey N, listed as aa = residue placed at this position, column sums to 1

RNAPRITFGGPSDSTG G9L (RNAPRITFLGPSDSTG)
DMS PSSM value, G (position 9) (peptide RNAPRITFGGPSDSTG): 0

APRITFGGPSDSTGSN G7I (APRITFIGPSDSTGSN)
DMS PSSM value, G (position 7) (peptide APRITFGGPSDSTGSN): 0

APRITFGGPSDSTGSN P2N (ANRITFGGPSDSTGSN)
DMS PSSM value, P (position 2) (peptide APRITFGGPSDSTGSN): 0

RNAPRITFGGPSDSTG P4D (RNADRITFGGPSDSTG)
DMS PSSM value, P (position 4) (peptide RNAPRITFGGPSDSTG): 0

RNAPRITFGGPSDSTG S14L (RNAPRITFGGPSDLTG)
DMS PSSM value, S (position 14) (peptide RNAPRITFGGPSDSTG): 0

RNAPRITFGGPSDSTG F8N (RNAPRITNGGPSDSTG)
DMS PSSM value, F (position 8) (peptide RNAPRITFGGPSDSTG): 0

RNAPRITFGGPSDSTG S12V (RNAPRITFGGPVDSTG)
DMS PSSM value, S (position 12) (peptide RNAPRITFGGPSDSTG): 0

APRITFGGPSDSTGSN G7V (APRITFVGPSDSTGSN)
DMS PSSM value, G (position 7) (peptide APRITFGGPSDSTGSN): 0

RNAPRITFGGPSDSTG P4K (RNAKRITFGGPSDSTG)
DMS PSSM value, P (position 4) (peptide RNAPRITFGGPSDSTG): 0

RNAPRITFGGPSDSTG S12L (RNAPRITFGGPLDSTG)
DMS PSSM value, S (position 12) (peptide RNAPRITFGGPSDSTG): 0

APRITFGGPSDSTGSN D11F (APRITFGGPSFSTGSN)
DMS PSSM value, D (position 11) (peptide APRITFGGPSDSTGSN): 0.001494

RNAPRITFGGPSDSTG I6F (RNAPRFTFGGPSDSTG)
DMS PSSM value, I (position 6) (peptide RNAPRITFGGPSDSTG): 0

RNAPRITFGGPSDSTG P4F (RNAFRITFGGPSDSTG)
DMS PSSM value, P (position 4) (peptide RNAPRITFGGPSDSTG): 0

APRITFGGPSDSTGSN G7A (APRITFAGPSDSTGSN)
DMS PSSM value, G (position 7) (peptide APRITFGGPSDSTGSN): 0

APRITFGGPSDSTGSN F6S (APRITSGGPSDSTGSN)
DMS PSSM value, F (position 6) (peptide APRITFGGPSDSTGSN): 0

RNAPRITFGGPSDSTG S14Q (RNAPRITFGGPSDQTG)
DMS PSSM value, S (position 14) (peptide RNAPRITFGGPSDSTG): 0

RNAPRITFGGPSDSTG S12R (RNAPRITFGGPRDSTG)
DMS PSSM value, S (position 12) (peptide RNAPRITFGGPSDSTG): 0

APRITFGGPSDSTGSN T13Y (APRITFGGPSDSYGSN)
DMS PSSM value, T (position 13) (peptide APRITFGGPSDSTGSN): 0.001423

APRITFGGPSDSTGSN P2S (ASRITFGGPSDSTGSN)
DMS PSSM value, P (position 2) (peptide APRITFGGPSDSTGSN): 0.0005858

APRITFGGPSDSTGSN P2I (AIRITFGGPSDSTGSN)
DMS PSSM value, P (position 2) (peptide APRITFGGPSDSTGSN): 0

RNAPRITFGGPSDSTG S14N (RNAPRITFGGPSDNTG)
DMS PSSM value, S (position 14) (peptide RNAPRITFGGPSDSTG): 0.6905

RNAPRITFGGPSDSTG P11Q (RNAPRITFGGQSDSTG)
DMS PSSM value, P (position 11) (peptide RNAPRITFGGPSDSTG): 0

APRITFGGPSDSTGSN T13N (APRITFGGPSDSNGSN)
DMS PSSM value, T (position 13) (peptide APRITFGGPSDSTGSN): 0.01901

APRITFGGPSDSTGSN G14L (APRITFGGPSDSTLSN)
DMS PSSM value, G (position 14) (peptide APRITFGGPSDSTGSN): 0.0229

RNAPRITFGGPSDSTG I6V (RNAPRVTFGGPSDSTG)
DMS PSSM value, I (position 6) (peptide RNAPRITFGGPSDSTG): 0.768

APRITFGGPSDSTGSN G7P (APRITFPGPSDSTGSN)
DMS PSSM value, G (position 7) (peptide APRITFGGPSDSTGSN): 0

RNAPRITFGGPSDSTG N2M (RMAPRITFGGPSDSTG)
DMS PSSM value, N (position 2) (peptide RNAPRITFGGPSDSTG): 0

APRITFGGPSDSTGSN G7Q (APRITFQGPSDSTGSN)
DMS PSSM value, G (position 7) (peptide APRITFGGPSDSTGSN): 0.005359

RNAPRITFGGPSDSTG G9A (RNAPRITFAGPSDSTG)
DMS PSSM value, G (position 9) (peptide RNAPRITFGGPSDSTG): 0

APRITFGGPSDSTGSN G8T (APRITFGTPSDSTGSN)
DMS PSSM value, G (position 8) (peptide APRITFGGPSDSTGSN): 0.001267

APRITFGGPSDSTGSN G7K (APRITFKGPSDSTGSN)
DMS PSSM value, G (position 7) (peptide APRITFGGPSDSTGSN): 0

APRITFGGPSDSTGSN T13V (APRITFGGPSDSVGSN)
DMS PSSM value, T (position 13) (peptide APRITFGGPSDSTGSN): 0.7895

RNAPRITFGGPSDSTG F8V (RNAPRITVGGPSDSTG)
DMS PSSM value, F (position 8) (peptide RNAPRITFGGPSDSTG): 0

RNAPRITFGGPSDSTG G16T (RNAPRITFGGPSDSTT)
DMS PSSM value, G (position 16) (peptide RNAPRITFGGPSDSTG): 0

APRITFGGPSDSTGSN I4M (APRMTFGGPSDSTGSN)
DMS PSSM value, I (position 4) (peptide APRITFGGPSDSTGSN): 0

RNAPRITFGGPSDSTG D13F (RNAPRITFGGPSFSTG)
DMS PSSM value, D (position 13) (peptide RNAPRITFGGPSDSTG): 0

RNAPRITFGGPSDSTG R5I (RNAPIITFGGPSDSTG)
DMS PSSM value, R (position 5) (peptide RNAPRITFGGPSDSTG): 0.009613

RNAPRITFGGPSDSTG G16K (RNAPRITFGGPSDSTK)
DMS PSSM value, G (position 16) (peptide RNAPRITFGGPSDSTG): 0

RNAPRITFGGPSDSTG F8H (RNAPRITHGGPSDSTG)
DMS PSSM value, F (position 8) (peptide RNAPRITFGGPSDSTG): 0

APRITFGGPSDSTGSN S15H (APRITFGGPSDSTGHN)
DMS PSSM value, S (position 15) (peptide APRITFGGPSDSTGSN): 0.01115

RNAPRITFGGPSDSTG I6R (RNAPRRTFGGPSDSTG)
DMS PSSM value, I (position 6) (peptide RNAPRITFGGPSDSTG): 0

APRITFGGPSDSTGSN I4K (APRKTFGGPSDSTGSN)
DMS PSSM value, I (position 4) (peptide APRITFGGPSDSTGSN): 0

RNAPRITFGGPSDSTG P4Q (RNAQRITFGGPSDSTG)
DMS PSSM value, P (position 4) (peptide RNAPRITFGGPSDSTG): 0.08846

APRITFGGPSDSTGSN G8S (APRITFGSPSDSTGSN)
DMS PSSM value, G (position 8) (peptide APRITFGGPSDSTGSN): 0.005734

APRITFGGPSDSTGSN G8A (APRITFGAPSDSTGSN)
DMS PSSM value, G (position 8) (peptide APRITFGGPSDSTGSN): 0.9067

APRITFGGPSDSTGSN G7D (APRITFDGPSDSTGSN)
DMS PSSM value, G (position 7) (peptide APRITFGGPSDSTGSN): 0

APRITFGGPSDSTGSN R3K (APKITFGGPSDSTGSN)
DMS PSSM value, R (position 3) (peptide APRITFGGPSDSTGSN): 0.0004363

APRITFGGPSDSTGSN A1P (PPRITFGGPSDSTGSN)
DMS PSSM value, A (position 1) (peptide APRITFGGPSDSTGSN): 0.006009

RNAPRITFGGPSDSTG G10H (RNAPRITFGHPSDSTG)
DMS PSSM value, G (position 10) (peptide RNAPRITFGGPSDSTG): 0

RNAPRITFGGPSDSTG P11K (RNAPRITFGGKSDSTG)
DMS PSSM value, P (position 11) (peptide RNAPRITFGGPSDSTG): 0

APRITFGGPSDSTGSN G8I (APRITFGIPSDSTGSN)
DMS PSSM value, G (position 8) (peptide APRITFGGPSDSTGSN): 0

APRITFGGPSDSTGSN S12A (APRITFGGPSDATGSN)
DMS PSSM value, S (position 12) (peptide APRITFGGPSDSTGSN): 0.01432

RNAPRITFGGPSDSTG I6M (RNAPRMTFGGPSDSTG)
DMS PSSM value, I (position 6) (peptide RNAPRITFGGPSDSTG): 0

RNAPRITFGGPSDSTG G9Q (RNAPRITFQGPSDSTG)
DMS PSSM value, G (position 9) (peptide RNAPRITFGGPSDSTG): 0

APRITFGGPSDSTGSN P2G (AGRITFGGPSDSTGSN)
DMS PSSM value, P (position 2) (peptide APRITFGGPSDSTGSN): 0

RNAPRITFGGPSDSTG S14Y (RNAPRITFGGPSDYTG)
DMS PSSM value, S (position 14) (peptide RNAPRITFGGPSDSTG): 0

APRITFGGPSDSTGSN F6N (APRITNGGPSDSTGSN)
DMS PSSM value, F (position 6) (peptide APRITFGGPSDSTGSN): 0

APRITFGGPSDSTGSN A1D (DPRITFGGPSDSTGSN)
DMS PSSM value, A (position 1) (peptide APRITFGGPSDSTGSN): 0.5313

APRITFGGPSDSTGSN G8Y (APRITFGYPSDSTGSN)
DMS PSSM value, G (position 8) (peptide APRITFGGPSDSTGSN): 0.02437

APRITFGGPSDSTGSN
DMS PSSM value, A (position 1) (peptide APRITFGGPSDSTGSN): 0.1536
DMS PSSM value, D (position 11) (peptide APRITFGGPSDSTGSN): 0.2538
DMS PSSM value, F (position 6) (peptide APRITFGGPSDSTGSN): 0.991
DMS PSSM value, G (position 7) (peptide APRITFGGPSDSTGSN): 0.9101
DMS PSSM value, G (position 8) (peptide APRITFGGPSDSTGSN): 0.05897
DMS PSSM value, G (position 14) (peptide APRITFGGPSDSTGSN): 0.009135
DMS PSSM value, I (position 4) (peptide APRITFGGPSDSTGSN): 0.9676
DMS PSSM value, P (position 2) (peptide APRITFGGPSDSTGSN): 0.199
DMS PSSM value, P (position 9) (peptide APRITFGGPSDSTGSN): 0.679
DMS PSSM value, R (position 3) (peptide APRITFGGPSDSTGSN): 0.004269
DMS PSSM value, S (position 10) (peptide APRITFGGPSDSTGSN): 0.07098
DMS PSSM value, S (position 12) (peptide APRITFGGPSDSTGSN): 0.1222
DMS PSSM value, S (position 15) (peptide APRITFGGPSDSTGSN): 0.03905
DMS PSSM value, T (position 5) (peptide APRITFGGPSDSTGSN): 0.4961
DMS PSSM value, T (position 13) (peptide APRITFGGPSDSTGSN): 0.03355
